Laboratory results as given in PMC9068772, “Discovery of first-in-class nanomolar inhibitors of heptosyltransferase I reveals a new aminoglycoside target and potential alternative mechanism of action” (Scientific Reports, 2022).
Values joined by “and” are separate entries in the source; they are usually repeats but may differ in a detail not shown here. Equal entries are not always repeated.

What was measured:
[1] = target: T1, Heptosyltransferase I (HepI) WT (Escherichia coli, UniProt P24173); experiment: HepI inhibition, ADP/NADH coupled assay (wild type); format: biochemical, E. coli K12; details: for kcat: HepI WT in presence of inhibitor; for Ki: 10 μM ODLA, inhibitor varied
T1 construct: made in house; host or cells: E. coli One Shot BL-21-AI
T1 sequence (P24173 whole entry): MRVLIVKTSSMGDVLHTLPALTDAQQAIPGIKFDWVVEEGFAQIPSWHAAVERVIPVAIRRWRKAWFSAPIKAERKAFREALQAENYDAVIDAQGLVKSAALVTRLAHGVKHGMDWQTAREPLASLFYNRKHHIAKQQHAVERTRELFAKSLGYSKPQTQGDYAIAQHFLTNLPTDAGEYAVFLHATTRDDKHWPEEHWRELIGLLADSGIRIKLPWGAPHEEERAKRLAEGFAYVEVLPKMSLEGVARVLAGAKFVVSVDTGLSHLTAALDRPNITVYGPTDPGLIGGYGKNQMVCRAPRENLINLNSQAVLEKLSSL
Description: As previously reported[11],[14],[15], an ADP/NADH coupled assay was used to monitor HepI activity by monitoring the absorbance change at 340 nm at 37 °C on a Cary Bio 100 UV–Vis Spectrometer. Under normal conditions, the assay buffer was composed of 50 mM HEPES, 50 mM KCl, 10 mM MgCl2, pH 7.5. The coupled enzyme reaction additionally contained 100 μM phosphoenolpyruvate, 100 μM NADH, 100 μM dithiothreitol (DTT) and 0.05 U/μL of both pyruvate kinase and lactate dehydrogenase. 100 μM ADPH was used when ODLA concentration was varied and 100 μM ODLA was used when ADPH was varied. Once a stable baseline was established (~ 5 min), the reaction was initiated by addition of HepI to a final concentration of 50 nM or 100 nM (for high and lower substrate concentrations respectively) and all reported reaction rates are after background subtraction. When running 12 samples at once, plastic cuvette stirs and a repeat pipettor was used to inject 200 μL enzyme. Inhibition of HepI was monitored using the same ADP/NADH coupled assay, all conditions of the assay were the same as previously described unless otherwise stated. Ki values for each of the compounds were determined by varying compound final concentration from 100 μm to 10 nm, and a final concentration of 10 μM ODLA. Competition assays against ADPH were done with excess ODLA (100 μM) and varying ADPH from 2–0.25 μM. Competition assays against ODLA were done with excess ADPH (100 μM) and varying ODLA from 2–0.25 μM. Reactions were started with addition of enzyme and inhibitor was varied from 30–0.01 μM. Kinetics were fit to Lineweaver-Burke (Eq. 1), competitive (Eq. 2), non-competitive (Eq. 3), mixed (Eq. 4), Dixon (Eq. 5), or Cornish-Bowden (Eq. 6) models. All fitting and plotting was done through MATLAB R2018A.1 1/V1/[S]=KM/Vmax[S]+1/Vmax 2 V[S]=Vmax[S]/KM1+[I]/Ki+[S] 3 V[S]=Vmax[S]/1+([I]/Ki)/KM+[S] 4 V[S]=Vmax[S]/KM(1+[I]/Ki)+[S](1+[I]/αKi) 5 1/V[I]=KM1+I/Ki+[S]1+I/αKi/Vmax[S] 6 [S]/V[I]=KM1+I/Ki+[S]1+I/αKi/Vmax

[2] = target: T2, HepI (Escherichia coli, UniProt P24173); experiment: Circular dichroism thermal melt of HepI; format: binding, E. coli K12; details: CD melt, HepI plus ligand alone
T2 construct: made in house; host or cells: E. coli One Shot BL-21-AI
T2 sequence (P24173 whole entry): as above
Description: Circular dichroism melt experiments were performed in a Jasco J-810 spectropolarimeter in Starna 21-Q-2 cells (minimum volume 400 µL) sealed with Teflon tape to prevent evaporation. Parameters include 3 accumulations of data collected between 195–275 nm as a function of temperature (10–95 °C with 5° increments) at a ramp rate of 2°/min and a scanning rate of 50 nm/min. Samples were prepared by diluting a mixture of 5 μM HepI and some combination of 250 μM substrate/product and/or 100 μM inhibitor in a buffer of 10 mM Tris–HCl and 100 mM KCl (pH = 7.5). CD data was analyzed via in house script written in MATLAB R2018A that average a set of triplicate data, normalizes to a percent unfolded (assuming the protein is fully folded at 5 °C) at 222 nm as a function of temperature and fits to a sigmoid curve to determine the melt temperature (TM).

| SMILES | kcat [1] | Ki ([1]; HepI WT) | Type of inhibition with ODLA ([1]; HepI WT, excess ADPH, ODLA varied, Lineweaver–Burk, Dixon, Cornish-Bowden) | Extent of unfolding of HepI with ligand [2] | Melting temperature (Tm) of HepI with ligand [2] |
| --- | --- | --- | --- | --- | --- |
| NC[C@H]1O[C@H](O[C@H]2[C@H](O)[C@@H](O[C@H]3O[C@H](CO)[C@@H](O)[C@H](N)[C@H]3O)[C@H](N)C[C@@H]2N)[C@H](N)[C@@H](O)[C@@H]1O [Kanamycin B] | 0.149 ± 0.007 s⁻¹ | 0.99 ± 0.119 µM | Competitive | – | – |
| Nc1ncnc2c1ncn2[C@@H]1O[C@H](COP(=O)(O)OP(=O)(O)O[C@@H]2O[C@H]([C@@H](O)CO)[C@@H](O)[C@H](O)[C@@H]2O)[C@@H](O)[C@H]1O [ADPH, ADP-L-glycero-β-D-manno-heptose] | – | – | – | ~ 100% | does not induce any changes in the melting temperature |
| Nc1ncnc2c1ncn2[C@@H]1O[C@H](COP(=O)(O)OP(=O)(O)O)[C@@H](O)[C@H]1O [ADP, Adenosine disphosphate] | – | – | – | – | melts similarly to HepI with ADPH |
| NCC[C@H](O)C(=O)N[C@@H]1C[C@H](N)[C@@H](O[C@H]2O[C@H](CN)[C@@H](O)[C@H](O)[C@H]2O)[C@H](O)[C@H]1O[C@H]1O[C@H](CO)[C@@H](O)[C@H](N)[C@H]1O [Amikacin] | 0.138 ± 0.001 s⁻¹ | 4.3 µM and 4.26 µM | – | – | – |
